Some test systems named below: A549; COLO 205; EKVX; KM12; M14; MCF7; MDA-MB-435; NCI-H226; NCI-H23; SF-268; SF-295; SF-539; SN12C; SNB-19; SNB-75; U-251; UACC-62; HL-60; SK-MEL-28.
Assay in all cases: NCI anticancer screen, dose series, 48 h

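48-hour exposure; five concentrations; linearly interpolated endpoints. GI50: concentration for 50% inhibition of growth.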 Activity calls are given as the source filed them. Rule as the data show it: active = GI50 up to about 1.1 µM and inactive = higher.

Turning to `O=C1c2ccccc2-n2c1nc1cc(Cl)ccc1c2=O`, the GI50 with A549 was 66.8 µM (inactive); with COLO 205, > 100 µM (inactive); with EKVX it was > 100 µM (inactive); in the assay with KM12 it was 39.9 µM (inactive); in the assay on M14 it was 15.8 µM (inactive); with MCF7 it was > 100 µM (inactive). For the same molecule, the GI50 in the assay on MDA-MB-435 was 2.02 µM (inactive); in the assay with NCI-H226 it was > 100 µM (inactive); with NCI-H23, 11.8 µM (inactive); in the assay with SF-268 it was 61.9 µM (inactive); in the assay on SF-295, 50.7 µM (inactive); in the assay on SF-539 it was > 100 µM (inactive). The GI50 with SN12C was > 100 µM (inactive); in the assay on SNB-19, > 100 µM (inactive); in the assay with SNB-75, 85.9 µM (inactive); in the assay on U-251, 51.4 µM (inactive); in the assay on UACC-62, 11.2 µM (inactive).

Consider `CCOP(=O)(OCC)OC1C=CC2CCC1C2` (centres undefined), for which the GI50 in the assay with A549, in the assay on COLO 205, in the assay with EKVX, in the assay with HL-60, with KM12 and in the assay on M14 was > 100 µM (inactive) in each case. In addition, the GI50 in the assay on NCI-H226, in the assay on NCI-H23, in the assay on SF-268, in the assay on SF-295, with SF-539 and in the assay with SK-MEL-28 was > 100 µM (inactive) throughout. Besides, the GI50 in the assay on SN12C, in the assay on SNB-19, with SNB-75, in the assay with U-251 and with UACC-62 was > 100 µM (inactive) each time.

For `CCCCCCCCCCCCCCCCOCC(CC(F)(F)P(=O)(OCC)OCC)OC(C)=O` (centres undefined), the GI50 with A549 was 12 µM (inactive); in the assay with COLO 205 it was 18.2 µM (inactive); in the assay on EKVX, 21.7 µM (inactive); in the assay with KM12, 11.6 µM (inactive); in the assay on M14, 17.9 µM (inactive); in the assay on MCF7 it was 15.8 µM (inactive). The GI50 in the assay on MDA-MB-435 is 18.6 µM (inactive); with NCI-H226, 14.4 µM (inactive); in the assay on NCI-H23 it was 16.9 µM (inactive); in the assay with SF-268, 12.6 µM (inactive); in the assay on SF-295, 11.6 µM (inactive); with SK-MEL-28, 17.8 µM (inactive). In addition, the GI50 in the assay with SN12C was 19.7 µM (inactive); in the assay on SNB-19, 3.21 µM (inactive); in the assay with SNB-75 it was 17.5 µM (inactive); with U-251, 2.72 µM (inactive); with UACC-62, 15.3 µM (inactive).

For `C=C[C@H]1CN2CCc3c([nH]c4c([C@H]5CCCN5C)c(O)ccc34)[C@@H]2C[C@@H]1C[C@H]1c2[nH]c3ccccc3c2CCN1C` [STRYCHNOPENTAMINE], the GI50 in the assay with A549 was 1.55 µM (inactive); with COLO 205, 1.5 µM (inactive); with EKVX, 1.75 µM (inactive); with HL-60, 0.267 µM (active); in the assay on KM12 it was 1.36 µM (inactive); with M14, 1.47 µM (inactive). Moreover, the GI50 with MCF7 is 0.776 µM (active); in the assay on MDA-MB-435 it was 1.43 µM (inactive); in the assay on NCI-H23 it was 1.85 µM (inactive); in the assay on SF-268, 1.58 µM (inactive); in the assay with SF-295, 1.73 µM (inactive); in the assay with SK-MEL-28 it was 1.76 µM (inactive). Also, the GI50 was 1.65 µM (inactive) in the assay with SN12C; 1.95 µM (inactive) with SNB-19; 1.14 µM (inactive) in the assay with SNB-75; 1.43 µM (inactive) in the assay with U-251; 1.77 µM (inactive) with UACC-62.

Take `CN(C)c1ccc(/C=N/NC(=S)Nc2ccccc2)cc1`: the GI50 in the assay on A549, in the assay on COLO 205, in the assay on EKVX, in the assay on KM12, in the assay on M14 and with MCF7 was > 100 µM (inactive) each time. Also, the GI50 with MDA-MB-435, in the assay on NCI-H226, in the assay on NCI-H23, in the assay with SF-268, with SF-295 and in the assay with SF-539 was > 100 µM (inactive) each time. The GI50 in the assay on SK-MEL-28, in the assay with SN12C, in the assay on SNB-19, in the assay on SNB-75, with U-251 and in the assay with UACC-62 was > 100 µM (inactive) in each case.

Consider `O=C(Nc1sccc1S(=O)(=O)c1ccccc1)c1ccccc1`, for which the GI50 was > 100 µM (inactive) with A549; > 88.1 µM (inactive) in the assay on COLO 205; > 100 µM (inactive) in the assay with EKVX; > 100 µM (inactive) in the assay on KM12; > 100 µM (inactive) in the assay on M14; > 100 µM (inactive) with MCF7. The GI50 in the assay with MDA-MB-435 is 3.69 µM (inactive); in the assay with NCI-H226, > 100 µM (inactive); in the assay on NCI-H23, > 100 µM (inactive); in the assay on SF-268, > 100 µM (inactive); with SF-295, > 100 µM (inactive); in the assay with SF-539, > 100 µM (inactive). Further, the GI50 with SK-MEL-28, with SN12C, in the assay on SNB-19, in the assay with SNB-75, in the assay on U-251 and with UACC-62 was > 100 µM (inactive) throughout.

Take `Clc1ccc(NCc2nnc(CCCCCCCCc3nnc(CNc4ccc(Cl)cc4)o3)o2)cc1`: the GI50 in the assay with A549, with COLO 205, in the assay with EKVX, in the assay with KM12, with M14 and in the assay on MCF7 was > 100 µM (inactive) each time. The GI50 with MDA-MB-435, with NCI-H23, in the assay with SF-268, with SF-295, in the assay with SN12C and in the assay with SNB-19 was > 100 µM (inactive) in each case. Also, the GI50 in the assay on SNB-75, in the assay with U-251 and in the assay with UACC-62 was > 100 µM (inactive) each time.

For the molecule `CCOC(=O)C1=CC(C)(C(=O)OCC)Nc2c(nc(OC)n(C)c2=O)N1` (centres undefined), the GI50 in the assay on A549, in the assay with COLO 205, in the assay with EKVX, with KM12, in the assay on M14 and in the assay on MCF7 was > 10 µM (inactive) in each case. The GI50 in the assay on MDA-MB-435, in the assay on NCI-H226, with NCI-H23, with SF-268, with SF-295 and with SF-539 was > 10 µM (inactive) each time. Besides, the GI50 in the assay with SK-MEL-28, in the assay with SN12C, with SNB-19, with SNB-75 and with U-251 was > 10 µM (inactive) each time.

For the molecule `Nc1ccc(-c2nc3ccc(F)cc3s2)cc1I`, the GI50 in the assay with A549 was > 100 µM (inactive); in the assay with COLO 205, > 100 µM (inactive); in the assay with EKVX, > 51.6 µM (inactive); in the assay on KM12 it was > 100 µM (inactive); with M14, > 100 µM (inactive); in the assay with MCF7, < 0.01 µM (active). Further, the GI50 in the assay with MDA-MB-435 was > 100 µM (inactive); with NCI-H23, > 100 µM (inactive); in the assay on SF-268, > 63.8 µM (inactive); in the assay with SF-295, > 71 µM (inactive); in the assay on SF-539, 5.9 µM (inactive); in the assay with SK-MEL-28, > 100 µM (inactive). Moreover, the GI50 with SN12C was > 100 µM (inactive); in the assay on SNB-19, > 61.2 µM (inactive); in the assay on SNB-75 it was 30.8 µM (inactive); with U-251 it was > 90.8 µM (inactive); in the assay with UACC-62, > 79.6 µM (inactive).

Take `CCOC(=O)C(C)c1nc2cc(F)c(N3CCOCC3)cc2[nH]c1=O` (centres undefined): the GI50 in the assay on A549, in the assay on COLO 205, in the assay with EKVX, in the assay on KM12, in the assay with M14 and in the assay on MCF7 was > 100 µM (inactive) in each case. The GI50 in the assay on MDA-MB-435, with NCI-H226, in the assay with NCI-H23, with SF-268, in the assay on SF-295 and in the assay on SF-539 was > 100 µM (inactive) in each case. Moreover, the GI50 with SK-MEL-28, with SN12C, in the assay on SNB-19, with SNB-75, in the assay with U-251 and in the assay on UACC-62 was > 100 µM (inactive) in each case.

On to `C=C1CN(Cc2ccccc2)[C@@H]2CCCCC[C@H](C#N)[C@H]12`, for which the GI50 in the assay with A549 is 78 µM (inactive); in the assay on COLO 205, > 100 µM (inactive); in the assay with EKVX, > 100 µM (inactive); with KM12 it was > 100 µM (inactive); in the assay on M14, > 100 µM (inactive); in the assay on MCF7 it was > 100 µM (inactive). Further, the GI50 with MDA-MB-435 is > 76 µM (inactive); in the assay on NCI-H226 it was > 69.3 µM (inactive); in the assay on NCI-H23 it was > 93.1 µM (inactive); with SF-268, > 100 µM (inactive); in the assay on SF-295, > 21.2 µM (inactive); in the assay on SF-539 it was > 100 µM (inactive). For the same molecule, the GI50 is > 100 µM (inactive) with SK-MEL-28; > 100 µM (inactive) in the assay on SN12C; > 100 µM (inactive) in the assay with SNB-19; > 100 µM (inactive) in the assay with SNB-75; > 94 µM (inactive) in the assay on U-251; > 100 µM (inactive) in the assay with UACC-62.
